Experimental findings from patent publication US8945595B2, “Insect repellent and attractants” (The Regents of the University of California, priority 2009, dated 2015) are described below.

Experiment [1] concerns CO2-sensitive ab1C neurons. Kind of experiment: single-sensillum electrophysiology, inhibition of CO2 response of ab1C neurons. It counts as cell-based, Drosophila. The following applies: odourant 10^-2; 3-sec 0.3% CO2 with 1-sec odourant. The text has this:
Representative traces (top) and mean responses (bottom) from single-sensillum electrophysiology of ab1 sensilla in mutant flies; spikes represent activity of the ab1C neuron. a, 3-sec stimulus of odourant overlaid with a 1-sec application of 0.3% CO2. b, 3-sec stimulus of 0.3% CO2 overlaid with a 1-sec application of odourant. PO=paraffin oil, d4on=2,3-butanedione, 6ol=1-hexanol. n=6, error bars=s.e.m. Spikes per second were counted during the 1-sec stimulus period, and spontaneous activity subtracted. (For data in a and b, T-test, *P<0.001, **P<0.005, ***P<0.01, ****P<0.05) c, ab1C responses to indicated concentrations of CO2 in the presence of solvent (PO), 1-hexanol (6ol) or 2,3-butanedione (d4on). Odourants were tested at 10^−1 dilution. Firing rates were counted in consecutive 0.1-sec bins. n=3, error bars=s.e.m.
Bars indicate stimulus periods for 0.3% CO2, and overlays with 1-hexanol (6ol) or 2,3-butanedione (d4on) at the indicated concentrations. b, Recovery of ab1C responsiveness to a 0.5-sec, 0.3% CO2 stimulus applied every 30-sec after initial treatment with 3-sec stimulus of either d4on (10^−1) or paraffin oil (PO). n=5, error bars=s.e.m., (T-test, *P<0.005, **<0.01, ***P<0.05). c, CO2 response inhibition by structurally related compounds. A 3-sec stimulus of 0.3% CO2 was delivered in combination with 1-sec application of indicated odourant (10^−2) as in a. Percent increase or decrease in mean ab1C response was calculated relative to mean response of paraffin oil. n=5. d, Structures of CO2 and the 4 strongest antagonists. e-f, show mean odourant responses. e, Odourants were tested on ab1C neurons in Or83b2 flies at 10^−2 dilution in paraffin oil. Bars represent values after subtraction of mean response to paraffin oil. n=3. f, Odourants at indicated concentrations were tested on ab3A neuron in wild-type (wt) and ΔHalo (AH) mutants that lack Or22a and Or22b. Bars represent values after subtraction of spontaneous activity. n=5, error bars=s.e.m.
FIG. 16 is a schematic diagram of an odour-delivery system to maintain steady concentration of CO2 in binary mixture experiments. Cartridges were made from Pasteur pipettes with pre-filled cotton wool inserts. […] odorant dissolved in paraffin oil (at specific concentrations) was applied to the cotton wool, and a 1.5 ml disposable tip attached to the open end to make the “odour cartridge”. A controlled “humidified air flow” was generated from a compressed air cylinder by bubbling through water, and passed through a glass tube, and released over the recording arena holding the Drosophila. A C-55 stimulus controller (Syntech) was used to generate an additional activated-charcoal filtered continuous air flow of 5 ml/sec which was delivered into the humidified airstream through a “blank cartridge” with the tip placed through a hole in the tube. To generate controlled odourant stimulus the C-55 stimulus controller was used to switch air flow from the “continuous air flow” to “odor stimulus flow” channel. An additional CO2 stimulus was pulsed through a separate system that delivered controlled pulses (variable 2.5 ml/sec-6.5 ml/sec) into the same humidified airstream, from either a 1%, 5% or 100% cylinder of CO2 (Airgas).
Extracellular single-unit recordings were performed. Odourant stimuli were delivered via Pasteur pipette odour cartridges (see, FIG. 16). Chemicals were of the highest purity available, typically>99% (Sigma-Aldrich). All odourants were diluted in paraffin oil. A controlled volume of air 5 ml/sec was puffed through the odour cartridge containing vapours, and was delivered into a constant humidified airstream of 10 ml/sec that was passed over the fly antenna. […] CO2 stimulus was pulsed through a separate delivery system that delivered controlled pulses (variable 2.5 ml/sec-6.5 ml/sec) into the same humidified airstream, from either a 1%, 5% or 100% tank of CO2 (Airgas). […]

Experiment [2] relates to CO2 sensitive A neuron of peg sensillum. Kind of experiment: activation of CO2 sensitive neuron with a volatile odorant. Format: cell-based, Culex quinquefasciatus. The following applies: indicated concentrations. On the procedure:
(§1) FIG. 2 depicts electrophysiology measurements of the peg sensillum on the mosquito maxillary palp. The palp, indicated in brown in the schematic of the mosquito head, has several peg sensilla. Each peg sensilla (grey club-like structure in the center) contains three olfactory neurons A, B and C as indicated, of which the ‘A’ neuron gives a robust and specific increase in frequency of action potentials in response to a stimulus of CO2. Extracellular single-unit recordings are performed by inserting a glass microelectrode into the peg sensilla, and puffing an odor such as CO2 towards the mosquito maxillary palps. The signal is amplified to obtain the trace of action potentials.
(a) Action potential traces from the peg sensillum of the maxillary palp show spike amplitudes from three neurons, where the spikes with the largest amplitude belongs to the CO2 sensitive A neuron. (b) 1 sec of the indicated dilution 2,3-butanedione is puffed to Aedes aegypti. (c) 1 sec of indicated odor is puffed to Anopheles gambiae. (d) butanone and (e) 2,3-butanedione are given to Culex quinquefasciatus at the indicated concentrations. PO=paraffin oil. n=5. Baseline activity subtracted. Error bars indicate SEM.

The subject of experiment [3] is CO2 sensitive neuron (A neuron) of peg sensillum. Kind of experiment: single-sensillum electrophysiology of maxillary palp peg sensillum, inhibition of CO2 response. It counts as cell-based, Culex quinquefasciatus. The following applies: 3-sec pre-exposure, 10^-1; 0.25% CO2 impulse every 30-sec over 6-min. On the procedure:
as §1
Action potential traces from the peg sensillum of the maxillary palp show spike amplitudes from three neurons, where the highest spike (from neuron A) indicates the CO2 response. A 3-sec stimulus of 0.3% CO2 (indicated by longer black bar), is overlaid with a 0.5-sec stimulus of candidate odors. […]
The recovery of the response to a 0.25% impulse (top) or 0.3% impulse (bottom) of CO2 was measured every 30-sec over a 6-min time period, after an initial 3-sec pre-exposure with (A) butanal (10^−1) (top), or (B) an ‘odor mixture’ consisting of 1-hexanol, pentanal, butanal, and 2,3-butanedione at 10^−2 concentration (bottom). […]

Experiment [4] has the same test system. The experiment is described as above. Format: cell-based, Aedes aegypti. The settings on record: 3-sec pre-exposure, 10^-1; 0.3% CO2 impulse every 30-sec over 6-min. On the procedure: as §1
Action potential traces from the peg sensillum of the maxillary palp show spike amplitudes from three neurons, where the highest spike (from neuron A) indicates the CO2 response. A 3-sec stimulus of 0.3% CO2 (indicated by longer black bar), overlaid with a 1-sec stimulus of odor. CO2 and odor stimuli are applied in the same manner as discussed above. […]
The recovery of the response to a 0.3% impulse of CO2 was measured every 30-sec over a 6-min time period, after an initial 3-sec pre-exposure with (A) butanal (10^−1), or (B) an ‘odor mixture’ consisting of 1-hexanol, pentanal, butanal, and 2,3-butanedione at 10^−2 concentration. […]

Entries after “also recorded” stand apart in the source; their conditions may differ.

On to `CCCCC=O` [pentanal], for which the “CO2 response inhibition by structurally related odourants” value in experiment [1] is reported as “effective inhibitors”.

On to `CCC(C)=O` [butanone], for which the “activation of CO2 sensitive neuron” value in experiment [2] is reported as “activation; also recorded: activator”.

With `CCCC=O` [butanal], the “CO2 response after pre-exposure” value in experiment [3] and in experiment [4] was “long term reduction in CO2 response” throughout. In experiment [1], the “CO2 response inhibition by structurally related odourants” value is given as “effective inhibitors”.
